Source: ChEMBL document CHEMBL1201862, “PubChem BioAssay data set” (2004)
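Compound exposure: 48 hours, 5 concentrations, 96-well plates. The concentration for 50% growth inhibition is given as GI50.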 Activity calls are given as the source filed them. Rule as the data show it: active = GI50 up to about 1.1 µM and inactive = higher.

Experiments:
Assay in all cases: NCI anticancer screen, dose series, 48 h
A498 = test system: A498
A549 = test system: A549
BT-549 = test system: BT-549
HCC 2998 = test system: HCC 2998
K562 = test system: K562
MDA-N = test system: MDA-N
MOLT-4 = test system: MOLT-4
Malme-3M = test system: Malme-3M
NCI-H23 = test system: NCI-H23
NCI-H522 = test system: NCI-H522
PC-3 = test system: PC-3
SF-295 = test system: SF-295
SF-539 = test system: SF-539
SK-MEL-2 = test system: SK-MEL-2
SNB-19 = test system: SNB-19
SR = test system: SR
SW-620 = test system: SW-620
TK-10 = test system: TK-10
U-251 = test system: U-251
UO-31 = test system: UO-31

Structure (SMILES) | GI50 (A498) | GI50 (A549) | GI50 (BT-549) | GI50 (HCC 2998) | GI50 (K562) | GI50 (MDA-N) | GI50 (MOLT-4) | GI50 (Malme-3M) | GI50 (NCI-H23) | GI50 (NCI-H522) | GI50 (PC-3) | GI50 (SF-295) | GI50 (SF-539) | GI50 (SK-MEL-2) | GI50 (SNB-19) | GI50 (SR) | GI50 (SW-620) | GI50 (TK-10) | GI50 (U-251) | GI50 (UO-31)
COc1cc(C2c3cc4c(cc3OC(N3CCCC3)C2C)OCO4)cc(OC)c1O (stereo not given) | 21.1 µM (inactive) | 19 µM (inactive) | 13.3 µM (inactive) | 28.2 µM (inactive) | 4.88 µM (inactive) | 2.31 µM (inactive) | 24.6 µM (inactive) | 8.09 µM (inactive) | 23.4 µM (inactive) | 3.61 µM (inactive) | 20.8 µM (inactive) | 3.71 µM (inactive) | 14.9 µM (inactive) | 14.8 µM (inactive) | 13.2 µM (inactive) | 5.89 µM (inactive) | 6.89 µM (inactive) | 19.4 µM (inactive) | 11.6 µM (inactive) | 44.3 µM (inactive)
COc1ccc(C(Nc2ncccn2)c2cc3c(cc2O)OCO3)cc1 (stereo not given) | 46.5 µM (inactive) | 32.2 µM (inactive) | 23 µM (inactive) | 21.7 µM (inactive) | 23.1 µM (inactive) | 18.3 µM (inactive) | 26.3 µM (inactive) | 26.1 µM (inactive) | 12.7 µM (inactive) | 16.7 µM (inactive) | 19.5 µM (inactive) | 65.8 µM (inactive) | 15.2 µM (inactive) | 20.7 µM (inactive) | 17.3 µM (inactive) | 7.14 µM (inactive) | 9.42 µM (inactive) | 18.6 µM (inactive) | 15.4 µM (inactive) | 17.1 µM (inactive)
Clc1ccc2ns[s+]c2c1 | > 100 µM (inactive) | 5.24 µM (inactive) | 16.3 µM (inactive) | 17.5 µM (inactive) | 0.0611 µM (active) | 3.4 µM (inactive) | 1.71 µM (inactive) | 32.2 µM (inactive) | 11.7 µM (inactive) | 11.1 µM (inactive) | 0.847 µM (active) | 0.853 µM (active) | 3.53 µM (inactive) | 9.35 µM (inactive) | 29.2 µM (inactive) | 1.34 µM (inactive) | 6.62 µM (inactive) | > 25.6 µM (inactive) | 18.3 µM (inactive) | 6.44 µM (inactive)
Cc1cccc(C(C)(C)C)c1NC(=O)C(C#N)C1=C(Cl)C(=O)c2ccccc2C1=O (stereo not given) | 24.9 µM (inactive) | 21.7 µM (inactive) | 14.3 µM (inactive) | 15.7 µM (inactive) | 3.05 µM (inactive) | 14.4 µM (inactive) | 2.74 µM (inactive) | 17.2 µM (inactive) | 15.8 µM (inactive) | 13.8 µM (inactive) | 13.5 µM (inactive) | 15.9 µM (inactive) | 18.1 µM (inactive) | 16.1 µM (inactive) | 18.3 µM (inactive) | 3.38 µM (inactive) | 14.5 µM (inactive) | 19.1 µM (inactive) | 16.9 µM (inactive) | 14.7 µM (inactive)
CC1(C)Cc2nc3c(cc2C(=O)C1/C=N/C(C#N)=C(\N)C#N)C(=O)C(/C=N/C(C#N)=C(\N)C#N)C(C)(C)C3 (stereo not given) | 4.17 µM (inactive) | 2.6 µM (inactive) | 2.19 µM (inactive) | 4.52 µM (inactive) | 3.05 µM (inactive) | 2.41 µM (inactive) | 2.37 µM (inactive) | 1.52 µM (inactive) | 2.71 µM (inactive) | 0.705 µM (active) | 1.99 µM (inactive) | 2.54 µM (inactive) | 1.18 µM (inactive) | 2.2 µM (inactive) | 4.68 µM (inactive) | 3.08 µM (inactive) | 2.57 µM (inactive) | 4.8 µM (inactive) | 2.04 µM (inactive) | 1.84 µM (inactive)
